# Assay results: patent US12404289B2 (Gilead Sciences, Inc., priority 2020, dated 2025)
# Where two headings read alike, the source gives them in different places.
# Columns and labels:
# Format in all cases: cell-based
# [1] = test system: Respiratory syncytial virus (RSV) strain A2; assay: RSV antiviral assay (HEp-2, 96 well); conditions: Table 1
# SARS-CoV-2 = SARS-CoV-2 antiviral assay (A549-hACE2, Nano luciferase); conditions: A549-hACE2 cells, SARS-CoV2-Nano, MOI 0.025, 48 h
# [2] = CC50 assay (cytopathology in HEp-2 cells); conditions: human, HEp-2 cells, 4 days, CellTiter-Glo; Table 1; read-out: RSV CC50
# Method: (§1) The cytopathology of compounds in HEp-2 cells is determined in the following manner. HEp-2 cells are suspended in DMEM+GlutaMAX (supplemented with 10% FBS and 1% Penicillin/Streptomycin) and seeded into 96 well plates (3×10^3/well). After a 4-hour incubation at 37° C.+5% CO2, three-fold serial dilutions of compounds are added to each well using an HP D300e digital dispenser. The cells are then incubated for 4 days at 37° C. and 5% CO2. The final volume in each well is 200 μL. Untreated wells are included as controls for 100% cell viability, while compounds treated with 5 uM puromycin are included as controls for 0% viability. Following the incubation, 100 μL of culture supernatant is removed from each well and replaced with 100 μL of CellTiter-Glo reagent (Promega, Madison, WI, Cat #G7573). The plates are then rocked for 2 minutes followed by a 10-minute incubation at 25° C. Compound-induced cytopathic effect is then assessed by measuring luminescence signal using and Envision plate reader. Values are normalized to the untreated DMSO and puromycin-treated controls (as 100% and 0% viability, respectively) and data is fit using non-linear regression analysis using XLfit4. The CC50 value for each compound is then determined as the concentration reducing cell viability by 50%.
# [3] = test system: Respiratory syncytial virus (RSV) strain A2; assay: Hep-2 RSV2 384-well assay (EC50-HEP2-384); conditions: HEp-2 cells, RSV A2, MOI=4, 4 days, Table 1
# [4] = test system: Respiratory syncytial virus recombinant with luciferase (RSV-Luc5); assay: microbe, parasite or virus in culture; conditions: human respiratory syncytial virus, HEp-2, 72 h, read-out: EC50 RSVFluc-Hep2 384, HEp-2 cells, RSV-Luc5, MOI=0.5, 3 days, 384 well, One-Glo; Table 1
# [5] = test system: Recombinant respiratory syncytial virus expressing the firefly luciferase protein (RSV-Fluc); assay: microbe, parasite or virus in culture; conditions: Table 4
# HEp-2 cells = assay: CC50 assay (cytopathology in HEp-2 cells); conditions: HEp-2 cells, 4 days, CellTiter-Glo; Table 1; read-out: RSV CC50
# Method: as §1
# [6] = human respiratory syncytial virus, HEp-2, 96 h, read-out: EC50-RSV-HEP-2-96, HEp-2 cells, RSV A2, MOI=4, 4 days, 96 well, CellTiter-Glo
# [7] = Severe acute respiratory syndrome coronavirus 2, 48 h, Table 1, read-out: SARS-CoV-2 EC50
# [8] = human respiratory syncytial virus, HEp-2, 96 h
# [9] = human respiratory syncytial virus, NHBE, 72 h, read-out: EC50 RSVFluc NHBE 96, NHBE cells, RSV-Fluc, MOI of 0.1, three days, 96 well
# [10] = Severe acute respiratory syndrome coronavirus 2, 48 h, Table 4, read-out: EC50 SARS CoV2
# [11] = read-out: EC50 RSVFluc NHBE 96, NHBE cells, RSV-Fluc, MOI of 0.1, three days, 96 well
SMILES,"EC50 [1, 6] [µM]","EC50 (SARS-CoV-2; Table 4, read-out: EC50 SARS CoV2) [µM]",EC50 (SARS-CoV-2; [7]) [µM],CC50 at 4 days [2] [µM],"EC50 [3, 8] [µM]",EC50 [4] [µM],"EC50 [5, 9] [µM]",EC50 (SARS-CoV-2; [10]) [µM],"EC50 ([1]; read-out: EC50-RSV-HEP-2-96, HEp-2 cells, RSV A2, MOI=4, 4 days, 96 well, CellTiter-Glo) [µM]",CC50 (HEp-2 cells) [µM],"EC50 [5, 11] [µM]",EC50 [3] [µM]
"C[C@H](NP(=O)(OC[C@H]1O[C@@](C#N)(c2ccc3c(N)ncnn23)[C@H](O)[C@@H]1O)Oc1ccc(C(C)(C)C)cc1)C(=O)OC1CC2(CCC2)C1 (stereo partly drawn) [Example 29, Spiro[3.3]heptan-2-yl (2S)-2-[[[(2R,3S,4R,5R)-5-(4-aminopyrrolo[2,1-f][1,2,4]triazin-7-yl)-5-cyano-3,4-dihydroxy-tetrahydrofuran-2-yl]methoxy-(4-tert-butylphenoxy)phosphoryl]amino]propanoate]",0.0107,0.123,0.0651,2.65,0.0622,0.0369,0.00393,–,–,–,–,–
CCC(CC)COC(=O)[C@H](C)NP(=O)(OC[C@H]1O[C@@](C#N)(c2ccc3c(N)ncnn23)[C@H](OC(=O)C(C)C)[C@@H]1OC(=O)C(C)C)Oc1ccc(C(C)(C)C)cc1 (some centres unmarked) [Example 14],0.029,–,–,2.73,–,–,0.00372,0.186,–,–,–,–
"CCC(CC)COC(=O)[C@H](C)N[P@](=O)(OC[C@H]1O[C@@](C#N)(c2ccc3c(=N)n(COP(=O)(O)O)cnn23)[C@H](O)[C@@H]1O)Oc1ccccc1 [Example 28, 2-Ethylbutyl ((S)-(((2R,3S,4R,5R)-5-cyano-3,4-dihydroxy-5-(4-imino-3-((phosphonooxy)methyl)-3,4-dihydropyrrolo[2,1-f][1,2,4]triazin-7-yl)tetrahydrofuran-2-yl)methoxy)(phenoxy)phosphoryl)-L-alaninate]",0.031,–,–,7.45,–,0.0215,0.035,1.62,–,–,–,–
"CCC(CC)COC(=O)[C@H](C)NP(=O)(OC[C@H]1O[C@@](C#N)(c2ccc3c(N)ncnn23)[C@H](O)[C@@H]1O)Oc1cc(C)ccc1C(C)C (single isomer, unassigned) [Example 26b]",–,–,–,–,–,–,–,–,0.603,2.4,–,–
"CCC(=O)O[C@H]1[C@@H](OC(=O)CC)[C@](C#N)(c2ccc3c(N)ncnn23)O[C@@H]1CO[P@@](=O)(N[C@@H](C)C(=O)OCC(CC)CC)Oc1ccccc1 [Example 3, (2R,3R,4R,5R)-2-(4-aminopyrrolo[2,1-f][1,2,4]triazin-7-yl)-2-cyano-5-((((S)—(((S)-1-(2-ethylbutoxy)-1-oxopropan-2-yl)amino)(phenoxy)phosphoryl)oxy)methyl) tetrahydrofuran-3,4-diyl Dipropionate]",0.0441,–,0.113,5.82,–,0.0183,0.00555,0.129,–,–,–,–
"CC(=O)O[C@H]1[C@@H](OC(C)=O)[C@](C#N)(c2ccc3c(N)ncnn23)O[C@@H]1COP(=O)(N[C@@H](C)C(=O)OC1CC2(CCC2)C1)Oc1ccc(C(C)(C)C)cc1 (stereo partly drawn) [Example 30, Spiro[3.3]heptan-2-yl (2S)-2-[[(4-tert-butylphenoxy)-[[(2R,3R,4R,5R)-3,4-diacetoxy-5-(4-aminopyrrolo[2,1-f][1,2,4]triazin-7-yl)-5-cyano-tetrahydrofuran-2-yl]methoxy]phosphoryl]amino]propanoate]",0.0073,–,–,2.31,0.0397,0.0271,–,0.202,–,–,0.00449,–
"CCC(CC)COC(=O)[C@H](C)NP(=O)(OC[C@H]1O[C@@](C#N)(c2ccc3c(N)ncnn23)[C@H](O)[C@@H]1O)Oc1cc(C)ccc1C(C)C (single isomer, unassigned) [Example 26a]",1.16,–,–,–,–,–,–,–,–,> 45,–,–
"CCC(CC)COC(=O)[C@H](C)NP(=O)(OC[C@H]1O[C@@](C#N)(c2ccc3c(N)ncnn23)[C@H](O)[C@@H]1O)Oc1ccc(C(C)(C)C)cc1 (mixture of isomers) [Example 13, 2-ethylbutyl (2S)-2-[[[(2R,5R)-5-(4-aminopyrrolo[2,1-f][1,2,4]triazin-7-yl)-5-cyano-3,4-dihydroxy-tetrahydrofuran-2-yl]methoxy-(4-tert-butylphenoxy)phosphoryl]amino]propanoate]",0.0345,–,0.0889,3.8,0.0588,0.0201,0.00292,0.319,–,–,–,–
"CC(C)C(=O)O[C@H]1[C@@H](OC(=O)C(C)C)[C@](C#N)(c2ccc3c(N)ncnn23)O[C@@H]1COP(=O)(N[C@@H](C)C(=O)OC1CCC1)Oc1ccccc1 (stereo partly drawn) [Example 21, (2R,3R,4R,5R)-2-(4-Aminopyrrolo[2,1-f][1,2,4]triazin-7-yl)-2-cyano-5-((((((S)-1-cyclobutoxy-1-oxopropan-2-yl)amino)(phenoxy)phosphoryl)oxy)methyl) tetrahydrofuran-3,4-diyl bis(2-methylpropanoate)]",0.0198,–,0.123,3.11,–,0.0294,–,0.234,–,–,0.00536,0.0588
"CCOC(=O)[C@H](C)NP(=O)(OC[C@H]1O[C@@](C#N)(c2ccc3c(N)ncnn23)[C@H](OC(=O)C(C)C)[C@@H]1OC(=O)C(C)C)Oc1ccc(C(C)(C)C)cc1 (stereo partly drawn) [Example 18, (2R,3R,4R,5R)-2-(4-aminopyrrolo[2,1-f][1,2,4]triazin-7-yl)-5-((((4-(tert-butyl)phenoxy)(((S)-1-ethoxy-1-oxopropan-2-yl)amino)phosphoryl)oxy)methyl)-2-cyanotetrahydrofuran-3,4-diyl bis(2-methylpropanoate)]",0.00775,–,–,2.62,0.0834,–,0.00669,0.21,–,–,–,–
"CCC(CC)COC(=O)[C@H](C)N[P@](=O)(OC[C@H]1O[C@@](C#N)(c2ccc3c(N)ncnn23)[C@H](OC(=O)C(C)C)[C@@H]1OC(=O)C(C)C)Oc1ccccc1 [Example 1, (2R,3R,4R,5R)-2-(4-aminopyrrolo[2,1-f][1,2,4]triazin-7-yl)-2-cyano-5-((((S)—(((S)-1-(2-ethylbutoxy)-1-oxopropan-2-yl)amino)(phenoxy)phosphoryl)oxy)methyl) tetrahydrofuran-3,4-diyl bis(2-methylpropanoate)]",0.122,–,–,5.49,–,–,0.00656,0.338,–,–,–,–
"CCC(CC)COC(=O)[C@H](C)N[P@](=O)(OC[C@H]1O[C@@](C#N)(c2ccc3c(N)ncnn23)[C@H](OC(C)=O)[C@@H]1OC(C)=O)Oc1ccccc1 [Example 2, (2R,3R,4R,5R)-2-(4-aminopyrrolo[2,1-f][1,2,4]triazin-7-yl)-2-cyano-5-((((S)—(((S)-1-(2-ethylbutoxy)-1-oxopropan-2-yl)amino)(phenoxy)phosphoryl)oxy)methyl) tetrahydrofuran-3,4-diyl Diacetate]",0.0844,–,–,8.41,–,–,0.00453,0.102,–,–,–,–
